# Experimental data taken from patent publication US20250186437A1, “CARBOLINE COMPOUNDS AND USE THEREOF” (PTC Therapeutics, Inc., priority 2021, published 2025).
# Test system: MOLM-13 cells
# Experiment: MOLM-13 Cell Proliferation Assay (indicator of DHODH inhibition)
# Assay type: cell-based
# Conditions: Homo sapiens, 72 Hours of culture, CellTiter-Glo, no uridine
# Procedure, shortened: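 Proliferation readout via CellTiter-Glo luminescence after 72 h compound treatment (37 °C, 5% CO2, 0.5% DMSO) of MOLM-13 cells seeded at 10^4 per well in RPMI 1640/10% FBS, used as a DHODH-inhibition indicator since these cells rely on de novo pyrimidine synthesis.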
row,Structure (SMILES),IC50
1,"OCC/C=C/c1ccc(C2c3[nH]c4cc(F)c(Cl)cc4c3CCN2c2nccc(C(F)(F)F)n2)cc1 (stereo not drawn) [Compound 167, (3E)-4-(4-{6-chloro-7-fluoro-2-[4-(trifluoromethyl)pyrimidin-2-yl]-2,3,4,9-tetrahydro-1H-pyrido[3,4-b]indol-1-yl}phenyl)but-3-en-1-ol]",1.1 nM
2,"Cc1ccc(C2c3[nH]c4ccc(-n5nccn5)cc4c3CCN2c2nccc(C(F)(F)F)n2)cc1 (stereo not drawn) [Compound 287, 1-(4-methylphenyl)-6-(2H-1,2,3-triazol-2-yl)-2-[4-(trifluoromethyl)pyrimidin-2-yl]-2,3,4,9-tetrahydro-1H-pyrido[3,4-b]indole]",2.9 nM
3,"Fc1c(Cl)ccc2[nH]c3c(c12)CCN(c1nccc(C(F)(F)F)n1)C3c1cnc(-n2ccnc2)nc1 (stereo not drawn) [Compound 193, 6-chloro-5-fluoro-1-[2-(1H-imidazol-1-yl)pyrimidin-5-yl]-2-[4-(trifluoromethyl)pyrimidin-2-yl]-2,3,4,9-tetrahydro-1H-pyrido[3,4-b]indole]",3.8 nM
4,"N#Cc1ccc(C2c3[nH]c4ccc(Cl)c(F)c4c3CCN2c2ncc(Cl)cn2)cc1 (stereo not drawn) [Compound 52, 4-[6-chloro-2-(5-chloropyrimidin-2-yl)-5-fluoro-2,3,4,9-tetrahydro-1H-pyrido[3,4-b]indol-1-yl]benzonitrile]",25.7 nM
5,"Cc1ccc([C@H]2c3[nH]c4ccc(-n5nccn5)cc4c3CCN2c2nc(C(F)(F)F)nc(C(F)(F)F)n2)c(F)c1F [Compound 524, (1S)-2-[4,6-bis(trifluoromethyl)-1,3,5-triazin-2-yl]-1-(2,3-difluoro-4-methylphenyl)-6-(2H-1,2,3-triazol-2-yl)-2,3,4,9-tetrahydro-1H-pyrido[3,4-b]indole]",0.3 nM
6,"COC(=O)c1ccnc(N2CCc3c([nH]c4ccc(Cl)c(F)c34)C2c2ccc(C#N)cc2)n1 (stereo not drawn) [Compound 104, methyl 2-[6-chloro-1-(4-cyanophenyl)-5-fluoro-1,3,4,9-tetrahydro-2H-pyrido[3,4-b]indol-2-yl]pyrimidine-4-carboxylate]",30.4 nM
7,"Cc1ccc(C2c3[nH]c4ccc(Cl)c(F)c4c3CCN2c2nccc(C(F)(F)F)n2)cc1 (stereo not drawn) [Compound 76, 6-chloro-5-fluoro-1-(4-methylphenyl)-2-[4-(trifluoromethyl)pyrimidin-2-yl]-2,3,4,9-tetrahydro-1H-pyrido[3,4-b]indole]",2.5 nM
8,"Cc1ccc([C@H]2c3[nH]c4ccc([N+](=O)[O-])cc4c3CCN2c2nc(C(F)(F)F)nc(C(F)(F)F)n2)c(F)c1F [Compound 527, (1S)-2-[4,6-bis(trifluoromethyl)-1,3,5-triazin-2-yl]-1-(2,3-difluoro-4-methylphenyl)-6-nitro-2,3,4,9-tetrahydro-1H-pyrido[3,4-b]indole]",0.6 nM
9,"N#Cc1ccnc(N2CCc3c([nH]c4cc(F)c(Cl)cc34)C2c2cccc(F)c2F)n1 (stereo not drawn) [Compound 68, 2-[6-chloro-1-(2,3-difluorophenyl)-7-fluoro-1,3,4,9-tetrahydro-2H-pyrido[3,4-b]indol-2-yl]pyrimidine-4-carbonitrile]",8.8 nM
10,"Cc1cc(C(F)(F)F)nc(N2CCc3c([nH]c4cc(F)c(Cl)cc34)C2c2ccc(C)c(F)c2F)n1 (stereo not drawn) [Compound 148, 6-chloro-1-(2,3-difluoro-4-methylphenyl)-7-fluoro-2-[4-methyl-6-(trifluoromethyl)pyrimidin-2-yl]-2,3,4,9-tetrahydro-1H-pyrido[3,4-b]indole]",0.9 nM
11,"OCCCc1ccc(C2c3[nH]c4cc(F)c(Cl)cc4c3CCN2c2ncc(F)cn2)cc1 (stereo not drawn) [Compound 159, 3-{4-[6-chloro-7-fluoro-2-(5-fluoropyrimidin-2-yl)-2,3,4,9-tetrahydro-1H-pyrido[3,4-b]indol-1-yl]phenyl}propan-1-ol]",27.1 nM
12,"Fc1cc2[nH]c3c(c2cc1Cl)CCN(c1ncc(Cl)cn1)C3c1cccc(F)c1F (stereo not drawn) [Compound 131, 6-chloro-2-(5-chloropyrimidin-2-yl)-1-(2,3-difluorophenyl)-7-fluoro-2,3,4,9-tetrahydro-1H-pyrido[3,4-b]indole]",9.2 nM
13,"Fc1c(Cl)ccc2[nH]c3c(c12)CCN(c1ncc(Cl)cn1)C3c1ccc(C(F)(F)F)cc1 (stereo not drawn) [Compound 62, 6-chloro-2-(5-chloropyrimidin-2-yl)-5-fluoro-1-[4-(trifluoromethyl)phenyl]-2,3,4,9-tetrahydro-1H-pyrido[3,4-b]indole]",24.7 nM
14,"Fc1ccc(C2c3[nH]c4ccc(Cl)c(F)c4c3CCN2c2ncc(F)cn2)cc1 (stereo not drawn) [Compound 51, 6-chloro-5-fluoro-1-(4-fluorophenyl)-2-(5-fluoropyrimidin-2-yl)-2,3,4,9-tetrahydro-1H-pyrido[3,4-b]indole]",21.6 nM

# Second part, the molecule after the results:
row,IC50,Structure (SMILES)
1,1.6 nM,"FC(F)(F)c1cnnc(N2CCc3c([nH]c4ccc(Cl)cc34)C2c2ccc(N3CCOCC3)nc2)n1 (stereo not drawn) [Compound 429, 6-chloro-1-[6-(morpholin-4-yl)pyridin-3-yl]-2-[5-(trifluoromethyl)-1,2,4-triazin-3-yl]-2,3,4,9-tetrahydro-1H-pyrido[3,4-b]indole]"
2,1.5 nM,"Cc1ccc([C@H]2c3[nH]c4ccc(Cl)cc4c3CCN2c2nc(C(F)(F)F)nc(C(Cl)(Cl)Cl)n2)c(F)c1F [Compound 505, (1S)-6-chloro-1-(2,3-difluoro-4-methylphenyl)-2-[4-(trichloromethyl)-6-(trifluoromethyl)-1,3,5-triazin-2-yl]-2,3,4,9-tetrahydro-1H-pyrido[3,4-b]indole]"
3,0.2 nM,"Cc1ccc(C2c3[nH]c4ccc(Cl)cc4c3CCN2c2nc(C(F)(F)F)nc(C(F)(F)F)n2)c(F)c1F (stereo not drawn) [Compound 497, 2-[4,6-bis(trifluoromethyl)-1,3,5-triazin-2-yl]-6-chloro-1-(2,3-difluoro-4-methylphenyl)-2,3,4,9-tetrahydro-1H-pyrido[3,4-b]indole]"
4,4.7 nM,"Cc1nc(N2CCc3c([nH]c4ccc(Cl)cc34)C2c2ccc(N3CCOCC3)nc2)nc(C)c1F (stereo not drawn) [Compound 367, 6-chloro-2-(5-fluoro-4,6-dimethylpyrimidin-2-yl)-1-[6-(morpholin-4-yl)pyridin-3-yl]-2,3,4,9-tetrahydro-1H-pyrido[3,4-b]indole]"
5,15.2 nM,"Cc1nc(C)nc(N2CCc3c([nH]c4ccc(Cl)cc34)C2c2ccc(Cl)cc2)n1 (stereo not drawn) [Compound 449, 6-chloro-1-(4-chlorophenyl)-2-(4,6-dimethyl-1,3,5-triazin-2-yl)-2,3,4,9-tetrahydro-1H-pyrido[3,4-b]indole]"
6,1.2 nM,"Cc1ccc([C@H]2c3[nH]c4ccc(Cl)cc4c3CCN2c2nccc(C(F)(F)F)n2)cc1 [Compound 161, (1S)-6-chloro-1-(4-methylphenyl)-2-[4-(trifluoromethyl)pyrimidin-2-yl]-2,3,4,9-tetrahydro-1H-pyrido[3,4-b]indole]"
7,29.7 nM,"O=[N+]([O-])c1c(Cl)ccc2[nH]c3c(c12)CCN(c1nccc(C(F)(F)F)n1)C3c1cnc(N2CCOCC2)nc1 (stereo not drawn) [Compound 326, 6-chloro-1-[2-(morpholin-4-yl)pyrimidin-5-yl]-5-nitro-2-[4-(trifluoromethyl)pyrimidin-2-yl]-2,3,4,9-tetrahydro-1H-pyrido[3,4-b]indole]"
8,0.2 nM,"Fc1cc(Br)ccc1C1c2[nH]c3ccc(Cl)cc3c2CCN1c1nccc(C(F)(F)F)n1 (stereo not drawn) [Compound 268, 1-(4-bromo-2-fluorophenyl)-6-chloro-2-[4-(trifluoromethyl)pyrimidin-2-yl]-2,3,4,9-tetrahydro-1H-pyrido[3,4-b]indole]"
9,4.1 nM,"Cc1nc(N2CCc3c([nH]c4cc(F)c(Cl)cc34)C2c2ccc(CCCCO)cc2)ncc1F (stereo not drawn) [Compound 240, 4-{4-[6-chloro-7-fluoro-2-(5-fluoro-4-methylpyrimidin-2-yl)-2,3,4,9-tetrahydro-1H-pyrido[3,4-b]indol-1-yl]phenyl}butan-1-ol]"
10,5.7 nM,"FC(F)(F)c1ccnc(N2CCc3c([nH]c4ccc(Cl)cc34)C2c2cnc(N3CC4(COC4)C3)nc2)n1 (stereo not drawn) [Compound 391, 6-chloro-1-[2-(2-oxa-6-azaspiro[3.3]heptan-6-yl)pyrimidin-5-yl]-2-[4-(trifluoromethyl)pyrimidin-2-yl]-2,3,4,9-tetrahydro-1H-pyrido[3,4-b]indole]"
11,29.6 nM,"Fc1ccc(C2c3[nH]c4ccc(Cl)cc4c3CCN2c2ncc(F)cn2)cc1 (stereo not drawn) [Compound 3, 6-chloro-1-(4-fluorophenyl)-2-(5-fluoropyrimidin-2-yl)-2,3,4,9-tetrahydro-1H-pyrido[3,4-b]indole]"
12,0.3 nM,"CN1CCN(c2ncc([C@H]3c4[nH]c5ccc(Br)cc5c4CCN3c3nc(C(F)(F)F)cc(C(F)(F)F)n3)cn2)CC1 [Compound 499, (1S)-2-[4,6-bis(trifluoromethyl)pyrimidin-2-yl]-6-bromo-1-[2-(4-methylpiperazin-1-yl)pyrimidin-5-yl]-2,3,4,9-tetrahydro-1H-pyrido[3,4-b]indole]"
13,7.6 nM,"Cc1ccc([C@H]2c3[nH]c4ccc(Cl)cc4c3CCN2c2nc(F)nc(N3CCN(C)CC3)n2)c(F)c1F [Compound 476, (1S)-6-chloro-1-(2,3-difluoro-4-methylphenyl)-2-[4-fluoro-6-(4-methylpiperazin-1-yl)-1,3,5-triazin-2-yl]-2,3,4,9-tetrahydro-1H-pyrido[3,4-b]indole]"
14,11.2 nM,"Cc1ccc([C@H]2c3[nH]c4ccc(Cl)cc4c3CCN2c2ncnc(C#N)n2)cc1 [Compound 399, 4-[(1S)-6-chloro-1-(4-methylphenyl)-1,3,4,9-tetrahydro-2H-pyrido[3,4-b]indol-2-yl]-1,3,5-triazine-2-carbonitrile]"
15,2.6 nM,"Cc1nc(N2CCc3c([nH]c4ccc(Cl)c(F)c34)C2c2cccc(F)c2F)ncc1F (stereo not drawn) [Compound 113, 6-chloro-1-(2,3-difluorophenyl)-5-fluoro-2-(5-fluoro-4-methylpyrimidin-2-yl)-2,3,4,9-tetrahydro-1H-pyrido[3,4-b]indole]"
16,2.8 nM,"Cc1ccc(C2c3[nH]c4ccc(Cl)c(F)c4c3CCN2c2nc(C)cc(C#N)n2)cc1 (stereo not drawn) [Compound 110, 2-[6-chloro-5-fluoro-1-(4-methylphenyl)-1,3,4,9-tetrahydro-2H-pyrido[3,4-b]indol-2-yl]-6-methylpyrimidine-4-carbonitrile]"
